According to US8822503B2, “2-pyridone compounds” (Taisho Pharmaceutical Co., Ltd, priority 2009, dated 2014):

Molecular target: T1, human liver GK (Homo sapiens, UniProt P35557)
T1 construct: GST (glutathione S-transferase) (N); made in house; host or cells: E. coli
T1 sequence (P35557 1-466 isoform P35557-2): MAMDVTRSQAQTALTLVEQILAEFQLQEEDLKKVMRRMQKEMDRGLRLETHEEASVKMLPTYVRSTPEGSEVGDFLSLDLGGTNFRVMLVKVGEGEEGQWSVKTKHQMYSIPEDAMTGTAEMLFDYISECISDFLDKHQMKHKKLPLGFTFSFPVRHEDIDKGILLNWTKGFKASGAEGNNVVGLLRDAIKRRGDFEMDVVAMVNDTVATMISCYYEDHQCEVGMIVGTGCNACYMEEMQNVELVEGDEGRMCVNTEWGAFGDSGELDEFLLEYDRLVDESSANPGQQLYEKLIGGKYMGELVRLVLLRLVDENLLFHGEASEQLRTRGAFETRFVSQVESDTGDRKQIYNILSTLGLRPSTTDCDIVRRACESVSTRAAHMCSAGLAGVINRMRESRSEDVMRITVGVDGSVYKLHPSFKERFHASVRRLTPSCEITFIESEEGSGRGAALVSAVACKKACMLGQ
Assay: GK activation test
Assay type: biochemical
Conditions: test compound concentration needed to activate 50% of maximum activation ability; 4 mM 14C-labeled glucose, 2 mM ATP, room temperature, 20 minutes
In short: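 GST-tagged human liver GK from E. coli (0.24 μg/well) with 4 mM 14C-glucose, 2 mM ATP in Hepes-KOH pH 7.1, KCl, MgCl2, DTT, 1% DMSO, 20 min room temperature. Labeled glucose 6-phosphate captured on anion resin, eluted and counted. EC50 = concentration giving half of maximal activation.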

## O=C1CC[C@H](/C=C(/c2ccc(C3CC3)c(=O)[nH]2)c2ccc(Cl)cc2C(F)(F)F)N1 [Example 4-110, 6-{(E)-1-[4-Chloro-2-(trifluoromethyl)phenyl]-2-[(2R)-5-oxopyrrolidin-2-yl]ethenyl}-3-cyclopropylpyridin-2(1H)-one]
  EC50: 500 to 3000 nM

## O=C1CC[C@H](/C=C(\c2ccc(Cl)c(F)c2)c2ccc(C3CC3)c(=O)[nH]2)N1 [Example 4-111, 6-{(E)-1-(4-Chloro-3-fluorophenyl)-2-[(2R)-5-oxopyrrolidin-2-yl]ethenyl}-3-cyclopropylpyridin-2(1H)-one]
  EC50: 10 to 500 nM

## O=C1CC[C@H](/C=C(\c2ccc(F)c(F)c2)c2ccc(C3CC3)c(=O)[nH]2)N1 [Example 4-112, 3-Cyclopropyl-6-{(E)-1-(3,4-difluorophenyl)-2-[(2R)-5-oxopyrrolidin-2-yl]ethenyl}pyridin-2(1H)-one]
  EC50: 500 to 3000 nM

## Cc1cc(/C(=C\[C@H]2CCC(=O)N2)c2ccc(C3CC3)c(=O)[nH]2)ccc1F [Example 4-113, 3-Cyclopropyl-6-{(E)-1-(4-fluoro-3-methylphenyl)-2-[(2R)-5-oxopyrrolidin-2-yl]ethenyl}pyridin-2(1H)-one]
  EC50: 500 to 3000 nM

## Cc1ccc(/C(=C\[C@H]2CCC(=O)N2)c2ccc(C3CC3)c(=O)[nH]2)cc1F [Example 4-114, 3-Cyclopropyl-6-{(E)-1-(3-fluoro-4-methylphenyl)-2-[(2R)-5-oxopyrrolidin-2-yl]ethenyl}pyridin-2(1H)-one]
  EC50: 10 to 500 nM

## Cc1ccc(/C(=C\[C@H]2CCC(=O)N2)c2ccc(C3CC3)c(=O)[nH]2)cc1C [Example 4-115, 3-Cyclopropyl-6-{(E)-1-(3,4-dimethylphenyl)-2-[(2R)-5-oxopyrrolidin-2-yl]ethenyl}pyridin-2(1H)-one]
  EC50: 10 to 500 nM

## O=C1CC[C@H](/C=C(\c2ccc(C(F)(F)F)c(F)c2)c2ccc(C3CC3)c(=O)[nH]2)N1 [Example 4-116, 3-Cyclopropyl-6-{(E)-1-[3-fluoro-4-(trifluoromethyl)phenyl]-2-[(2R)-5-oxopyrrolidin-2-yl]ethenyl}pyridin-2(1H)-one]
  EC50: 10 to 500 nM

## O=C1CC[C@H](/C=C(\c2ccc(F)c(C(F)(F)F)c2)c2ccc(C3CC3)c(=O)[nH]2)N1 [Example 4-117, 3-Cyclopropyl-6-{(E)-1-[4-fluoro-3-(trifluoromethyl)phenyl]-2-[(2R)-5-oxopyrrolidin-2-yl]ethenyl}pyridin-2(1H)-one]
  EC50: 500 to 3000 nM

## O=C1CC[C@H](/C=C(/c2ccc(C3CC3)c(=O)[nH]2)c2ccc(C(F)(F)F)cc2C(F)(F)F)N1 [Example 4-118, 6-{(E)-1-[2,4-Bis(trifluoromethyl)phenyl]-2-[(2R)-5-oxopyrrolidin-2-yl]ethenyl}-3-cyclopropylpyridin-2(1H)-one]
  EC50: 3000 to 10000 nM

## O=C1CC[C@H](/C=C(\c2cc(C(F)(F)F)cc(C(F)(F)F)c2)c2ccc(C3CC3)c(=O)[nH]2)N1 [Example 4-119, 6-{(E)-1-[3,5-Bis(trifluoromethyl)phenyl]-2-[(2R)-5-oxopyrrolidin-2-yl]ethenyl}-3-cyclopropylpyridin-2(1H)-one]
  EC50: 500 to 3000 nM

## O=C1CC[C@H](/C=C(\c2ccc(Cl)nc2)c2ccc(C3CC3)c(=O)[nH]2)N1 [Example 4-120, 6-{(E)-1-(6-Chloropyridin-3-yl)-2-[(2R)-5-oxopyrrolidin-2-yl]ethenyl}-3-cyclopropylpyridin-2(1H)-one]
  EC50: 500 to 3000 nM

## O=C1CC[C@H](/C=C(\c2ccc(F)nc2)c2ccc(C3CC3)c(=O)[nH]2)N1 [Example 4-121, 3-Cyclopropyl-6-{(E)-1-(6-fluoropyridin-3-yl)-2-[(2R)-5-oxopyrrolidin-2-yl]ethenyl}pyridin-2(1H)-one]
  EC50: 3000 to 10000 nM

## O=C1CC[C@H](/C=C(/c2ccc(C3CC3)c(=O)[nH]2)c2ccc(F)cc2O)N1 [Example 4-122, 3-Cyclopropyl-6-{(E)-1-(4-fluoro-2-hydroxyphenyl)-2-[(2R)-5-oxopyrrolidin-2-yl]ethenyl}pyridin-2(1H)-one]
  EC50: 10 to 500 nM

## O=C1CC[C@H](/C=C(\c2ccc3c(c2)CCO3)c2ccc(C3CC3)c(=O)[nH]2)N1 [Example 4-123, 3-Cyclopropyl-6-{(E)-1-(2,3-dihydro-1-benzofuran-5-yl)-2-[(2R)-5-oxopyrrolidin-2-yl]ethenyl}pyridin-2(1H)-one]
  EC50: 10 to 500 nM

## COc1cc(/C(=C\[C@H]2CCC(=O)N2)c2ccc(C3CC3)c(=O)[nH]2)ccc1Cl [Example 4-124, 6-{(E)-1-(4-Chloro-3-methoxyphenyl)-2-[(2R)-5-oxopyrrolidin-2-yl]ethenyl}-3-cyclopropylpyridin-2(1H)-one]
  EC50: 10 to 500 nM

## CCc1cc(/C(=C\[C@H]2CCC(=O)N2)c2ccc(C3CC3)c(=O)[nH]2)ccc1Cl [Example 4-125, 6-{(E)-1-(4-Chloro-3-ethylphenyl)-2-[(2R)-5-oxopyrrolidin-2-yl]ethenyl}-3-cyclopropylpyridin-2(1H)-one]
  EC50: 10 to 500 nM

## O=C1CC[C@H](/C=C(\c2ccc(OC(F)(F)F)cc2)c2ccc(C3CC3)c(=O)[nH]2)N1 [Example 4-126, 3-Cyclopropyl-6-{(E)-2-[(2R)-5-oxopyrrolidin-2-yl]-1-[4-(trifluoromethoxy)phenyl]ethenyl}pyridin-2(1H)-one]
  EC50: 10 to 500 nM

## O=C1CC[C@H](/C=C(\c2ccc(OC(F)F)cc2)c2ccc(C3CC3)c(=O)[nH]2)N1 [Example 4-127, 3-Cyclopropyl-6-{(E)-1-[4-(difluoromethoxy)phenyl]-2-[(2R)-5-oxopyrrolidin-2-yl]ethenyl}pyridin-2(1H)-one]
  EC50: 10 to 500 nM

## O=C1CC[C@H](/C=C(\c2ccc(OC(F)(F)F)c(Cl)c2)c2ccc(C3CC3)c(=O)[nH]2)N1 [Example 4-128, 6-{(E)-1-[3-Chloro-4-(trifluoromethoxy)phenyl]-2-[(2R)-5-oxopyrrolidin-2-yl]ethenyl}-3-cyclopropylpyridin-2(1H)-one]
  EC50: 10 to 500 nM

## O=C1CC[C@H](/C=C(\c2ccc(Cl)c(OC(F)(F)F)c2)c2ccc(C3CC3)c(=O)[nH]2)N1 [Example 4-129, 6-{(E)-1-[4-Chloro-3-(trifluoromethoxy)phenyl]-2-[(2R)-5-oxopyrrolidin-2-yl]ethenyl}-3-cyclopropylpyridin-2(1H)-one]
  EC50: 500 to 3000 nM

## O=C1CC[C@H](/C=C(\c2ccc(Cl)c(OC(F)F)c2)c2ccc(C3CC3)c(=O)[nH]2)N1 [Example 4-130, 6-{(E)-1-[4-Chloro-3-(difluoromethoxy)phenyl]-2-[(2R)-5-oxopyrrolidin-2-yl]ethenyl}-3-cyclopropylpyridin-2(1H)-one]
  EC50: 500 to 3000 nM

## O=C1CC[C@H](/C=C(\c2ccc(C(F)F)c(F)c2)c2ccc(C3CC3)c(=O)[nH]2)N1 [Example 4-131, 3-Cyclopropyl-6-{(E)-1-[4-(difluoromethyl)-3-fluorophenyl]-2-[(2R)-5-oxopyrrolidin-2-yl]ethenyl}pyridin-2(1H)-one]
  EC50: 10 to 500 nM

## O=C1CC[C@H](/C=C(\c2ccc(C(F)F)c(Cl)c2)c2ccc(C3CC3)c(=O)[nH]2)N1 [Example 4-132, 6-{(E)-1-[3-Chloro-4-(difluoromethyl)phenyl]-2-[(2R)-5-oxopyrrolidin-2-yl]ethenyl}-3-cyclopropylpyridin-2(1H)-one]
  EC50: 10 to 500 nM

## Cc1cc(/C(=C\[C@H]2CCC(=O)N2)c2ccc(C3CC3)c(=O)[nH]2)ccc1C(F)F [Example 4-133, 3-Cyclopropyl-6-{(E)-1-[4-(difluoromethyl)-3-methylphenyl]-2-[(2R)-5-oxopyrrolidin-2-yl]ethenyl}pyridin-2(1H)-one]
  EC50: 10 to 500 nM

## COc1ccc(/C(=C\[C@H]2CCC(=O)N2)c2ccc(C3CC3)c(=O)[nH]2)cc1C(F)(F)F [Example 4-134, 3-Cyclopropyl-6-{(E)-1-[4-methoxy-3-(trifluoromethyl)phenyl]-2-[(2R)-5-oxopyrrolidin-2-yl]ethenyl}pyridin-2(1H)-one]
  EC50: 10 to 500 nM

## COc1cc(/C(=C\[C@H]2CCC(=O)N2)c2ccc(C3CC3)c(=O)[nH]2)ccc1C(F)F [Example 4-135, 3-Cyclopropyl-6-{(E)-1-[4-(difluoromethyl)-3-methoxyphenyl]-2-[(2R)-5-oxopyrrolidin-2-yl]ethenyl}pyridin-2(1H)-one]
  EC50: 10 to 500 nM

## O=C1CC[C@H](/C=C(\c2ccc(S(=O)(=O)N3CCCC3)cc2)c2ccc(C3CC3)c(=O)[nH]2)N1 [Example 4-136, 3-Cyclopropyl-6-{(E)-2-[(2R)-5-oxopyrrolidin-2-yl]-1-[4-(pyrrolidin-1-ylsulfonyl)phenyl]ethenyl}pyridin-2(1H)-one]
  EC50: 10 to 500 nM

## NS(=O)(=O)c1ccc(/C(=C\[C@H]2CCC(=O)N2)c2ccc(C3CC3)c(=O)[nH]2)cc1 [Example 4-137, 4-{(E)-1-(5-Cyclopropyl-6-oxo-1,6-dihydropyridin-2-yl)-2-[(2R)-5-oxopyrrolidin-2-yl]ethenyl}benzenesulfonamide]
  EC50: 10 to 500 nM

## O=C1CC[C@H](/C=C(\c2ccc(S(=O)(=O)N3CCOCC3)cc2)c2ccc(C3CC3)c(=O)[nH]2)N1 [Example 4-138, 3-Cyclopropyl-6-{(E)-1-[4-(morpholin-4-ylsulfonyl)phenyl]-2-[(2R)-5-oxopyrrolidin-2-yl]ethenyl}pyridin-2(1H)-one]
  EC50: 10 to 500 nM
